Usually Ki stands for the dissociation constant of the complex between target and ligand, obtained from inhibition or displacement.

The assay has as its target T1, NS3 genotype 1b protease (Hepatitis C virus genotype 1b, UniProt Q9WMX2, E1202G).
T1 construct: Purified NS3 protease domain (amino acids 1-181) of the genotype 1b and 3a virus were generated as above; K3 hexahistidine tag (N); rTEV protease cleavage site (N); made in house; host or cells: E. coli BL21AI, pET28 vector p28-N6H-Tev-NS3(181)1b
The experiment in a line: Ki determination, NS3 protease genotype 1b (fluorogenic depsipeptide substrate). It counts as biochemical. The method in brief:
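The His-tagged HCV NS3 protease domain (residues 1-181, genotype 1b con-1) was expressed in E. coli, and 50 pM enzyme with 20 μM NS4A peptide was used. Inhibitor (100 nM to 5 pM, 3-fold steps) was pre-incubated 1 h at room temperature in 50 mM HEPES, 40% glycerol, 0.05% Triton X-100, 10 mM DTT, 10% DMSO. The reaction was started with 4 μM fluorogenic substrate, and fluorescence (ex 340/em 490 nm) was read every 30 s between 90 and 120 min. Ki^app came from fitting rates with the Morrison equation.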

`COc1ccc2nc3c(nc2c1)O[C@H]1CN(C(=O)[C@H](C(C)(C)C)NC(=O)O[C@@H]2C[C@H]2CCCCC3F)[C@H](C(=O)N[C@]2(C(=O)NS(=O)(=O)C3(C)CC3)C[C@H]2C(F)F)[C@@H]1C` (stereo partly drawn) [Example 47, (1aR,5S,8S,9S,10R,22aR)-5-tert-butyl-N-[(1R,2R)-2-(difluoromethyl)-1-{[(1-methylcyclopropyl)sulfonyl]carbamoyl}cyclopropyl]-18-fluoro-14-methoxy-9-methyl-3,6-dioxo-1,1a,3,4,5,6,9,10,18,19,20,21,22,22a-tetradecahydro-8H-7,10-methanocyclopropa[18,19][1,10,3,6]dioxadiazacyclononadecino[11,12-b]quinoxaline-8-carboxamide] showed a Ki of 0.07 nM.

Values taken from patent US20150175655A1 (priority 2012, published 2015).
